Consider one compound from PMC9852063 (Molecular carcinogenesis, 2022).

For this test, the target named is T1, Doublecortin like kinase 1 (DCLK1) (Homo sapiens, UniProt O15075).
T1 sequence (O15075 1-740): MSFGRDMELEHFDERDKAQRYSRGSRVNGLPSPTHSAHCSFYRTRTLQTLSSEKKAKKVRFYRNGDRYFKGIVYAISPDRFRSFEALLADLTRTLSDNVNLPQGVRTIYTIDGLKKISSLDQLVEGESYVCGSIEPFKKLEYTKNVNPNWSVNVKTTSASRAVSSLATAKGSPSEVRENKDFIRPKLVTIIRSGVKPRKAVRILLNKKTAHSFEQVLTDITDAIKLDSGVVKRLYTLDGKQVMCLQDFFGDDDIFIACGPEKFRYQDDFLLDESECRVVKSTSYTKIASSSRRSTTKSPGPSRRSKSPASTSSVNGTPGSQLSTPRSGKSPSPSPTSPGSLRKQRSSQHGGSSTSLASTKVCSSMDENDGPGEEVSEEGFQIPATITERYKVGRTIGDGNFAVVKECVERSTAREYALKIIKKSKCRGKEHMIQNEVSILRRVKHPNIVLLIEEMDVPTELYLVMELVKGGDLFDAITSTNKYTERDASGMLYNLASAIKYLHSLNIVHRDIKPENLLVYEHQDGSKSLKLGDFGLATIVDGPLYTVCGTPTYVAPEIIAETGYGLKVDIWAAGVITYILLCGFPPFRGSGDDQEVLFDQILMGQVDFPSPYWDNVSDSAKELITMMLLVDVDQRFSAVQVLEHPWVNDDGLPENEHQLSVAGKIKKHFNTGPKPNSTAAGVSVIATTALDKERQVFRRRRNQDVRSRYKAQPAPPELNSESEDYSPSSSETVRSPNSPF
The test is described as follows: SPR with immobilized recombinant DCLK1. It is filed as binding.

In general, Kd refers to the equilibrium constant for the complex coming apart. Take `O=C1C(=Cc2ccc(F)cc2F)CNCC1=Cc1ccc(F)cc1F` [DiFiD, 3,5-bis (2,4-difluorobenzylidene)-4-piperidone]: the dissociation constant (Kd) stood at 71 nM.
